Read-outs that look alike come from different tables or passages of the source. Where only a bound is given, the exact number is not on record here.

One assay concerns the target T1, human α4β2 nAChR subtype (Homo sapiens, UniProt P17787+P43681).
T1 construct: expressed in transfected cells; host or cells: SH-EP1 clonal cells expressing human α4β2
Description: Radioligand binding ([3H]nicotine) at human α4β2 nAChR, SH-EP1/human α4β2 clonal cell membranes. The method, then: Preparation of membranes from SH-EP1/human α4β2 clonal cells: Cell pellets from 40 150 mm culture dishes were pooled, and homogenized by Polytron (Kinematica GmbH, Switzerland) in 20 milliliters of ice-cold preparative buffer. The homogenate was centrifuged at 48,000 g for 20 minutes at 4° C. The resulting pellet was re-suspended in 20 mL of ice-cold preparative buffer and stored at −20° C.
(§1) On the day of the assay, the frozen membranes were thawed and spun at 48,000×g for 20 min. The supernatant was decanted and discarded. The pellet was resuspended in Dulbecco's phosphate buffered saline (PBS, Life Technologies) pH 7.4 and homogenized with the Polytron for 6 seconds. Protein concentrations were determined using a Pierce BCA Protein Assay Kit, with bovine serum albumin as the standard (Pierce Chemical Company, Rockford, Ill.).
(§2) Incubation was terminated by rapid filtration on a multi-manifold tissue harvester (Brandel, Gaithersburg, Md.) using GF/B filters presoaked in 0.33% polyethyleneimine (w/v) to reduce non-specific binding. Tissue was rinsed 3 times in PBS, pH 7.4. Scintillation fluid was added to filters containing the washed tissue and allowed to equilibrate. Filters were then counted to determine radioactivity bound to the membranes by liquid scintillation counting (2200CA Tri-Carb LSC, Packard Instruments, 50% efficiency or Wallac Trilux 1450 MicroBeta, 40% efficiency, Perkin Elmer).
(§3) Data were expressed as disintegrations per minute (DPMs). Within each assay, each point had 2-3 replicates. The replicates for each point were averaged and plotted against the log of the drug concentration. IC50, which is the concentration of the compound that produces 50% inhibition of binding, was determined by least squares non-linear regression. Ki values were calculated using the Cheng-Prussof equation (1973): […]

A further assay concerns the target T2, rat α4β2 nAChR subtype (Rattus norvegicus, UniProt P09483+P12390).
T2 construct: Preparation of membranes from rat cortex; from tissue; host or cells: rat cerebral cortex membranes
Description: Radioligand binding ([3H]nicotine) at rat α4β2 nAChR, rat cortex membranes. Here is the method:
Preparation of membranes from rat cortex: Rats (female, Sprague-Dawley), weighing 150-250 g, were maintained on a 12 h light/dark cycle and were allowed free access to water and food supplied by PMI Nutrition International, Inc. Animals were anesthetized with 70% CO2, and then decapitated. Brains were removed and placed on an ice-cold platform. The cerebral cortex was removed and placed in 20 volumes (weight:volume) of ice-cold preparative buffer (137 mM NaCl, 10.7 mM KCl, 5.8 mM KH2PO4, 8 mM Na2HPO4, 20 mM HEPES (free acid), 5 mM iodoacetamide, 1.6 mM EDTA, pH 7.4); PMSF, dissolved in methanol to a final concentration of 100 μM, was added and the suspension was homogenized by Polytron. The homogenate was centrifuged at 18,000×g for 20 min at 4° C. and the resulting pellet was re-suspended in 20 volumes of ice-cold water. After 60 min incubation on ice, a new pellet was collected by centrifugation at 18,000×g for 20 min at 4° C. The final pellet was re-suspended in 10 volumes of buffer and stored at −20° C.
as §1, §2, §3

The mark [1] stands for this setting: rat cortex membranes, 5 nM [3H]nicotine, read-out: Rat α4β2 Ki.
Where [2] appears, read: SH-EP1/human α4β2 cell membranes, 5 nM [3H]nicotine, read-out: Human α4β2 Ki.

T1 sequence (P43681 29-627 limits assumed): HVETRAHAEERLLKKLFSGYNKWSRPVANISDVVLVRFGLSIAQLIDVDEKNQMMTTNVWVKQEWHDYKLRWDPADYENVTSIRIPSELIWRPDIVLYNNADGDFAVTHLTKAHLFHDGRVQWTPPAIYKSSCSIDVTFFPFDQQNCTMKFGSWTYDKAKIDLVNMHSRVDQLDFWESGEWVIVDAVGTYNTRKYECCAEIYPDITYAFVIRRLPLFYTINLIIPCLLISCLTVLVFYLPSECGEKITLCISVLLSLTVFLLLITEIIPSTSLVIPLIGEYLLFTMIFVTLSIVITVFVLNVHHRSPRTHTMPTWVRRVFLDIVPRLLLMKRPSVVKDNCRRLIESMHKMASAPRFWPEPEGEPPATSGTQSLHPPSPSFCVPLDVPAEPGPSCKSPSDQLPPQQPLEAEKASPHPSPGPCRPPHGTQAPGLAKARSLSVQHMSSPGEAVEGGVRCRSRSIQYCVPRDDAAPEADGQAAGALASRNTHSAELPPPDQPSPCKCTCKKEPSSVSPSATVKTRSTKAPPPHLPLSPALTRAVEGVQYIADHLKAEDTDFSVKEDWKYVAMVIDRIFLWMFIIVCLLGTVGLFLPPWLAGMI
T1 sequence (P17787 26-502): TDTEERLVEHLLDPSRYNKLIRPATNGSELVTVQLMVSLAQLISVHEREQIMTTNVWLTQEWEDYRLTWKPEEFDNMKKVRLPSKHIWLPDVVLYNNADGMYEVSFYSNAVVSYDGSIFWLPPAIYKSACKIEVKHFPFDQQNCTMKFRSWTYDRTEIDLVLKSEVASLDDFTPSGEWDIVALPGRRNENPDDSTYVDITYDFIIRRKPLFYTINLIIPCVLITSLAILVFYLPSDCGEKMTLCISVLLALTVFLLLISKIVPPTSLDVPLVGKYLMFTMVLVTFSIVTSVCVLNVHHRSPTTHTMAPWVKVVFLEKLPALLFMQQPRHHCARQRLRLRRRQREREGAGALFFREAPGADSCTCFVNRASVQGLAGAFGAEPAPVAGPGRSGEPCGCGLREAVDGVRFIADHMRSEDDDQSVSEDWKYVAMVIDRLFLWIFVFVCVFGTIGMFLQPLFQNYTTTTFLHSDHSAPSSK
T2 sequence (P09483 31-630): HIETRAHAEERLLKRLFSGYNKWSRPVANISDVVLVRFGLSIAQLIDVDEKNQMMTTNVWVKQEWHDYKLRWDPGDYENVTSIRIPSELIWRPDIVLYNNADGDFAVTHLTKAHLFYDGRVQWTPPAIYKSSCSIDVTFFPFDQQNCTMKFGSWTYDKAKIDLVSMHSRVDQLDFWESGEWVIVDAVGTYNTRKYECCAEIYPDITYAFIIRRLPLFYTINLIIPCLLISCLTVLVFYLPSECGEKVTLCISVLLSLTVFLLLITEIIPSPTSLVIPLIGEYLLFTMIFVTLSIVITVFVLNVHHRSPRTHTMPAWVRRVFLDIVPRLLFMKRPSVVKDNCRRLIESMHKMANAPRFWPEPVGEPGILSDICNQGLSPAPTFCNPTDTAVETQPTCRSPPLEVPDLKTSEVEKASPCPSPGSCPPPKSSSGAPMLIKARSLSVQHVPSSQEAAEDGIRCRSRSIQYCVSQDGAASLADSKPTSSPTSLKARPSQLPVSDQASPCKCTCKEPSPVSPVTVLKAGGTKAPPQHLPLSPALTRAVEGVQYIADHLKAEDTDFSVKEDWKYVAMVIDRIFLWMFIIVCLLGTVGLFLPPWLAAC
T2 sequence (P12390 25-500): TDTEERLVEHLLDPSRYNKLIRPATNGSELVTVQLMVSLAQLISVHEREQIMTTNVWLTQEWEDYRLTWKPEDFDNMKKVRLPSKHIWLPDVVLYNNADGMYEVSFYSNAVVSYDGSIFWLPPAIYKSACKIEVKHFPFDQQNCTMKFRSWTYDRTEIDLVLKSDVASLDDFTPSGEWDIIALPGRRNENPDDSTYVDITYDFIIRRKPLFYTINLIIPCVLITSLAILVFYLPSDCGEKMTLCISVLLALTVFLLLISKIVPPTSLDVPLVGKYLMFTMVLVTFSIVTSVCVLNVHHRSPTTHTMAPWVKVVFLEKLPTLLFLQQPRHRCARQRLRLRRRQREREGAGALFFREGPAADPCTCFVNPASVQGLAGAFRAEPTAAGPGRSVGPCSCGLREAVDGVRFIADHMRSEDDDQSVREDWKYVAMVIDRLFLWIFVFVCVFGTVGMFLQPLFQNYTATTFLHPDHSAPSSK

The Ki is a dissociation constant, usually derived from enzyme kinetics or from competition with a known ligand. Turning to `O=C(C1CC1)N1CC2CNCC1C2` (stereo not shown), the Ki on human α4β2 nAChR subtype (read-out: Human α4β2 Ki) stood at 3.4 nM; on rat α4β2 nAChR subtype (read-out: Rat α4β2 Ki), 5.6 nM.

In the case of `C=CCNC(=S)N1C[C@@H]2CN[C@@H](C2)C1`, the Ki on human α4β2 nAChR subtype (read-out: Human α4β2 Ki) was > 10000 nM; at rat α4β2 nAChR subtype (read-out: Rat α4β2 Ki) it was 9900 nM.

`O=C(Oc1ccc(F)cc1)N1C[C@H]2CN[C@H](C2)C1`: the figures for the Ki at human α4β2 nAChR subtype and at rat α4β2 nAChR subtype were 310 nM and 45 nM, respectively.

For `CC(C)S(=O)(=O)N1C[C@@H]2CN[C@@H](C2)C1`, the Ki came to 16 nM at human α4β2 nAChR subtype (read-out: Human α4β2 Ki) and 750 nM at rat α4β2 nAChR subtype (setting [1]). As for `COc1ccc(S(=O)(=O)N2C[C@@H]3CN[C@@H](C3)C2)cc1`, the Ki at human α4β2 nAChR subtype (read-out: Human α4β2 Ki) came out at 580 nM; on rat α4β2 nAChR subtype (read-out: Rat α4β2 Ki) it was 750 nM.

As for `CC(=O)N1C[C@H]2CN[C@H](C2)C1`, the Ki at human α4β2 nAChR subtype (read-out: Human α4β2 Ki) is 34 nM; at rat α4β2 nAChR subtype (read-out: Rat α4β2 Ki), 14 nM. For `COC(=O)N1C[C@@H]2CNC[C@H]1C2`, the results for the Ki at human α4β2 nAChR subtype (read-out: Human α4β2 Ki) and at rat α4β2 nAChR subtype (read-out: Rat α4β2 Ki) were 86 nM and 40 nM, respectively. Turning to `COC(=O)N1C[C@H]2CN[C@H](C2)C1`, the Ki on human α4β2 nAChR subtype (read-out: Human α4β2 Ki) is 7.9 nM; on rat α4β2 nAChR subtype (read-out: Rat α4β2 Ki), 4.8 nM. `CCOC(=O)N1C[C@H]2CNC[C@@H]1C2`: the Ki on human α4β2 nAChR subtype (read-out: Human α4β2 Ki) worked out at 1400 nM. Regarding `CCCOC(=O)N1C[C@@H]2CN[C@@H](C2)C1`, the Ki at human α4β2 nAChR subtype (read-out: Human α4β2 Ki) amounted to 94 nM; at rat α4β2 nAChR subtype (read-out: Rat α4β2 Ki), 43 nM. Turning to `CC(C)(C)C(=O)N1C[C@H]2CN[C@H](C2)C1`, the Ki at human α4β2 nAChR subtype (read-out: Human α4β2 Ki) is 26 nM; on rat α4β2 nAChR subtype (read-out: Rat α4β2 Ki), 68 nM. `CCNC(=O)N1C[C@@H]2CN[C@@H](C2)C1`: the results for the Ki on human α4β2 nAChR subtype (read-out: Human α4β2 Ki) and on rat α4β2 nAChR subtype (read-out: Rat α4β2 Ki) were 560 nM and 160 nM, respectively. As to `CC(C)C(=O)N1C[C@@H]2CNC[C@H]1C2`, the Ki on human α4β2 nAChR subtype (read-out: Human α4β2 Ki) amounted to 590 nM. Consider `COC(=O)N1C[C@H]2CNC[C@@H]1C2`, for which, on human α4β2 nAChR subtype (setting [2]), the Ki came to 5700 nM. With `COC(=O)N1C[C@@H]2CN[C@@H](C2)C1`, the Ki on human α4β2 nAChR subtype (setting [2]) was 120 nM; on rat α4β2 nAChR subtype (read-out: Rat α4β2 Ki), 100 nM.

Take `CC(=O)N1C[C@@H]2CN[C@@H](C2)C1`: the Ki at human α4β2 nAChR subtype (setting [2]) was found to be 730 nM; on rat α4β2 nAChR subtype (setting [1]), 580 nM.

With `CCOC(=O)N1C[C@@H]2CN[C@@H](C2)C1`, the Ki on human α4β2 nAChR subtype (read-out: Human α4β2 Ki) amounted to 49 nM; at rat α4β2 nAChR subtype (read-out: Rat α4β2 Ki), 25 nM. Take `O=C([C@H]1C[C@H]1F)N1C[C@@H]2CNC[C@H]1C2`: the Ki came to 3.7 nM on human α4β2 nAChR subtype (read-out: Human α4β2 Ki) and 2.9 nM on rat α4β2 nAChR subtype (read-out: Rat α4β2 Ki).

Regarding `CC(C)OC(=O)N1C[C@H]2CN[C@H](C2)C1`, the results for the Ki at human α4β2 nAChR subtype (read-out: Human α4β2 Ki) and at rat α4β2 nAChR subtype (read-out: Rat α4β2 Ki) were 44 nM and 24 nM, respectively. Regarding `CCCC(=O)N1C[C@@H]2CNC[C@H]1C2`, the Ki at human α4β2 nAChR subtype (read-out: Human α4β2 Ki) was 34 nM. `O=C(C1CCC1)N1C[C@@H]2CNC[C@H]1C2`: on human α4β2 nAChR subtype (read-out: Human α4β2 Ki), the Ki was 23 nM. With `O=C(C1CC1)N1C[C@@H]2CNC[C@H]1C2`, the Ki on human α4β2 nAChR subtype (read-out: Human α4β2 Ki) stood at 4 nM; on rat α4β2 nAChR subtype (read-out: Rat α4β2 Ki) it was 7 nM.

For `COCCOC(=O)N1C[C@H]2CN[C@H](C2)C1`, the figures for the Ki on human α4β2 nAChR subtype (setting [2]) and on rat α4β2 nAChR subtype (read-out: Rat α4β2 Ki) were 310 nM and 74 nM, respectively. As to `CC(C)CC(=O)N1C[C@@H]2CN[C@@H](C2)C1`, the results for the Ki at human α4β2 nAChR subtype (read-out: Human α4β2 Ki) and at rat α4β2 nAChR subtype (read-out: Rat α4β2 Ki) were 350 nM and 320 nM, respectively.

In the case of `CN1C[C@H]2C[C@@H]1CN(C(=O)C1CC1)C2`, the Ki on human α4β2 nAChR subtype (read-out: Human α4β2 Ki) stood at 18 nM; at rat α4β2 nAChR subtype (read-out: Rat α4β2 Ki) it was 19 nM. As for `COCCOC(=O)N1C[C@@H]2CN[C@@H](C2)C1`, the Ki came out at 580 nM at human α4β2 nAChR subtype (setting [2]) and 1000 nM at rat α4β2 nAChR subtype (setting [1]). For `CCCCS(=O)(=O)N1C[C@@H]2CN[C@@H](C2)C1`, the Ki on human α4β2 nAChR subtype (read-out: Human α4β2 Ki) turned out to be 2100 nM. With `O=C([C@@H]1C[C@H]1F)N1C[C@H]2CNC[C@@H]1C2`, the Ki on human α4β2 nAChR subtype (read-out: Human α4β2 Ki) turned out to be 230 nM. Consider `CC(C)OC(=O)N1C[C@@H]2CN[C@@H](C2)C1`, for which the Ki at human α4β2 nAChR subtype (setting [2]) came to 560 nM; on rat α4β2 nAChR subtype (setting [1]) it was 970 nM. As for `C/C=C/CC(=O)N1C[C@@H]2CN[C@@H](C2)C1`, the Ki at human α4β2 nAChR subtype (read-out: Human α4β2 Ki) is 220 nM; at rat α4β2 nAChR subtype (read-out: Rat α4β2 Ki), 180 nM.

Take `CCCS(=O)(=O)N1C[C@@H]2CN[C@@H](C2)C1`: the Ki at human α4β2 nAChR subtype (read-out: Human α4β2 Ki) amounted to 2800 nM.

Take `CCS(=O)(=O)N1C[C@@H]2CN[C@@H](C2)C1`: the Ki on human α4β2 nAChR subtype (read-out: Human α4β2 Ki) was found to be 1200 nM. In the case of `O=C([C@H]1C[C@@H]1F)N1C[C@@H]2CNC[C@H]1C2`, the Ki on human α4β2 nAChR subtype (read-out: Human α4β2 Ki) is 11 nM. On to `O=C(C1CC12CCC2)N1C[C@@H]2CN[C@@H](C2)C1` (stereo partly shown), for which the Ki was found to be 2.3 nM on human α4β2 nAChR subtype (read-out: Human α4β2 Ki) and 3 nM at rat α4β2 nAChR subtype (read-out: Rat α4β2 Ki). For `CCCCC(=O)N1C[C@@H]2CN[C@@H](C2)C1` the same measures were 77 nM and 36 nM. On to `O=C(Nc1ccc(F)cc1)N1C[C@@H]2CN[C@@H](C2)C1`, for which the Ki at human α4β2 nAChR subtype (read-out: Human α4β2 Ki) was > 10000 nM; at rat α4β2 nAChR subtype (read-out: Rat α4β2 Ki), 2200 nM. With `O=C(CC(F)(F)F)N1C[C@@H]2CN[C@@H](C2)C1`, the Ki on human α4β2 nAChR subtype (read-out: Human α4β2 Ki) came to 73 nM; at rat α4β2 nAChR subtype (setting [1]), 110 nM. As to `CC1(C)CC1C(=O)N1C[C@@H]2CN[C@@H](C2)C1` (stereo partly shown), the Ki was found to be 31 nM on human α4β2 nAChR subtype (read-out: Human α4β2 Ki) and 49 nM on rat α4β2 nAChR subtype (read-out: Rat α4β2 Ki). For `COC(=O)N1CC2CNC(C2)C1` (stereo not shown) the same measures were 12 nM and 6.8 nM. Take `CC(=O)N1C[C@@H]2CNC[C@H]1C2`: the inhibitory constant (Ki) on human α4β2 nAChR subtype (read-out: Human α4β2 Ki) is 1300 nM.

For the compound `C=CCNC(=O)N1C[C@@H]2CN[C@@H](C2)C1`, the Ki stood at 910 nM at human α4β2 nAChR subtype (read-out: Human α4β2 Ki) and 130 nM on rat α4β2 nAChR subtype (read-out: Rat α4β2 Ki). `CS(=O)(=O)N1C[C@@H]2CN[C@@H](C2)C1`: the Ki at human α4β2 nAChR subtype (read-out: Human α4β2 Ki) was 2300 nM. Consider `O=C(C1CCOC1)N1C[C@@H]2CN[C@@H](C2)C1` (stereo partly shown), for which the Ki on human α4β2 nAChR subtype (read-out: Human α4β2 Ki) stood at 46 nM; at rat α4β2 nAChR subtype (setting [1]), 140 nM. As for `CC1(C)C(C(=O)N2CC3CNC(C3)C2)C1(C)C` (stereo not shown), the Ki at human α4β2 nAChR subtype (read-out: Human α4β2 Ki) came out at 8600 nM. As to `CCC(=O)N1C[C@@H]2CNC[C@H]1C2`, the Ki on human α4β2 nAChR subtype (read-out: Human α4β2 Ki) came to 27 nM.

Source of the values: patent publication US20110263629A1, “AMIDES OF DIAZABICYCLOOCTANES AND USES THEREOF” (Targacept, Inc., priority 2008, published 2011).
